This test has as its system NB-4. The test is described as follows: Induction of mitochondrial membrane potential loss in human NB4 cells by JC1 staining based flow cytometry (reference value: 27.7%). Format: functional. In general terms: Flow cytometry measures light scatter and fluorescence of single cells or particles in a stream.

The molecule `N#CC(C#N)=NNc1cccc(Cl)c1` [CARBONYL CYANIDE M-CHLOROPHENYLHYDRAZONE] registered an Activity of 93%.

These data come from ChEMBL document CHEMBL4330144, “A mitochondria-targeted organic arsenical accelerates mitochondrial metabolic disorder and function injury” (Bioorg Med Chem, 2019).
